Read-outs that look alike come from different tables or passages of the source. Ends that are not written are not given here. Peptide text beside a SMILES is read from it.
Tests used:
[1] = system: T cells from inguinal and popliteal lymph nodes and spleen; assay: T-cell recognition (proliferation) during adjuvant arthritis time course; assay type: cell-based, Lewis rats; settings: positive: proliferation more than 1.5 times background in more than 25% of organs; days 14, 19, 21, 32, 39
DRB1*0401 = DRB1*0401 (Homo sapiens, UniProt P01903+P01911, A100K/A169T/F76Y/I96L/K127E/L162R/M171V/N62H/P40V/Q125Y/R42H/S133A/S149N/S66Y/V115G/V209L/W38E); assay: MHC-peptide competition binding assay on isolated DRB1*0401 molecules
Procedure: T-cell responses to the selected peptides in patients are analysed by studying T-cell proliferation of peripheral blood lymphocytes (PBL) and synovial fluid derived cells. […] In these human studies the peptides are tested as 15-mers containing the 9-mer sequence of Table 2 as core sequence. […] The MHC binding affinity of the selected peptides is analysed for the most-common MHC class II-arthritis associations. […] The peptide binding affinity is tested in a MHC-peptide competition assay on isolated MHC molecules in the presence of a labelled marker peptide.
# MHC-peptide binding was measured as described in Wauben et al., Int. Immunol. […] Peptide binding is expressed as tire IC50.

T cell clone A2b = assay: Recognition by A2b T-cell clone: proliferation and/or activation marker expression; assay type: cell-based, Lewis rats; settings: positive: proliferation more than 2 times background in 2 of 4 experiments and/or activation marker upregulation in 2 of 3 experiments
Procedure: As an immediate read-out for mimicry peptides T-cell activation is measured by proliferation, TcR downregulation, expression of activation markers, and cytokines responses of clone A2b. In addition A2b-like T cells from arthritic rats are isolated, and activation of such cells is measured by, proliferation, TcR downregulation, expression of activation markers, and cytokines responses. Furthermore, T-cell lines are generated after immunisation with MT/IFA or selected peptides/DDA. The cross-reactive nature of the peptide specific T-cell responses is analysed in vitro by determining the recognition of both the self peptide as well as the mycobacterial hsp65 178-186 peptide. After testing the panel of n=65 peptides for induction of proliferation of T cell clone A2b, and/or induction of expression of activation markers, n=20 peptides (SEQ ID NOs: 15, 19, 20, 21, 22, 23, 24, 26, 30, 31, 32, 33, 35, 49, 51, 61, 63, 65, 67, 69) were considered positive. Criteria for positivity were that in 2 out of 4 experiments the induced proliferation was more than 2 times background proliferation as measured by ^3H-thymidine incorporation, and/or that in 2 out of 3 experiments upregulation of an activation marker was detectable by FACS analysis.

[2] = target: T1, DRB1*0401 molecules, detergent solubilised (human), P01903; assay: competition assay on detergent solubilised DRB1*0401 (1 µM) with biotinylated HA-marker peptide (100 nM)
T1 chain 1: not shown
T1 chain 2: not shown

[3] = DRB1*0401 1 μM, biotinylated HA-marker peptide 100 nM, peptide 0-256 μM, read-out: DRB1*0401 binding (IC50)

Molecule: SHSFPATLE (listed as Homo sapiens) [SEQ ID NO: 47]
- T-cell recognition during adjuvant arthritis [1]: positive

Molecule: CC(C)C[C@H](NC(=O)[C@H](CCC(=O)O)NC(=O)[C@H](CC(=O)O)NC(=O)[C@@H](NC(=O)[C@@H]1CCCN1C(=O)[C@@H](NC(=O)CNC(=O)[C@H](CO)NC(=O)CNC(=O)CNC(=O)[C@@H](N)CC(C)C)[C@@H](C)O)C(C)C)C(=O)N[C@@H](CC(=O)O)C(=O)N[C@@H](CCCCN)C(=O)N[C@@H](CS)C(=O)N[C@@H](CS)C(=O)O [SEQ ID NO: 79, LGGSGTPVDELDKCC] (H-LGGSGTPVDELDKCC-OH)
- IC50 (DRB1*0401; [3]): 128 to 256 µM

Molecule: PDSAPGEIE (listed as Rattus sp.) [SEQ ID NO: 31]
- T-cell recognition during adjuvant arthritis [1]: positive
- Recognition by T cell clone A2b (T cell clone A2b): positive

Molecule: GHSPPDDVD (listed as Homo sapiens) [SEQ ID NO: 51]
- T-cell recognition during adjuvant arthritis [1]: positive
- Recognition by T cell clone A2b (T cell clone A2b): positive

Molecule: LGSGSTRLE (listed as Homo sapiens) [SEQ ID NO: 40]
- T-cell recognition during adjuvant arthritis [1]: positive

Molecule: SFSPTCVLE (listed as Homo sapiens) [SEQ ID NO: 38]
- T-cell recognition during adjuvant arthritis [1]: positive

Molecule: NISLVGCIE (listed as Rattus sp.) [SEQ ID NO: 32]
- Recognition by T cell clone A2b (T cell clone A2b): positive

Molecule: SGTPVDDLD (listed as Rattus sp.) [SEQ ID NO: 63]
- T-cell recognition during adjuvant arthritis [1]: positive
- Recognition by T cell clone A2b (T cell clone A2b): positive

Molecule: SGSFTTALD (listed as Homo sapiens) [SEQ ID NO: 65]
- T-cell recognition during adjuvant arthritis [1]: positive
- Recognition by T cell clone A2b (T cell clone A2b): positive

Molecule: VGSASGALD (listed as Rattus sp.) [SEQ ID NO: 20]
- T-cell recognition during adjuvant arthritis [1]: positive
- Recognition by T cell clone A2b (T cell clone A2b): positive

Molecule: IPTVNENLE (listed as Rattus sp.) [SEQ ID NO: 35]
- T-cell recognition during adjuvant arthritis [1]: positive
- Recognition by T cell clone A2b (T cell clone A2b): positive

Molecule: TTTVSSFSLNVEYAI [SEQ ID NO: 80, TTTVSSFSLNVEYAI]
- IC50 (DRB1*0401; [3]): 128 to 256 µM

Molecule: IDTAVLHLD (listed as Rattus sp.) [SEQ ID NO: 33]
- T-cell recognition during adjuvant arthritis [1]: positive
- Recognition by T cell clone A2b (T cell clone A2b): positive

Molecule: QPLVQTAVTNIDRPK [SEQ ID NO: 77, QPLVQTAVTNIDRPK]
- IC50 (DRB1*0401; [3]): 32 to 64 µM

Molecule: TRSGNCYLD (listed as Homo sapiens) [SEQ ID NO: 54]
- T-cell recognition during adjuvant arthritis [1]: positive

Molecule: GVSASVPVE (listed as Rattus sp.) [SEQ ID NO: 30]
- T-cell recognition during adjuvant arthritis [1]: positive
- Recognition by T cell clone A2b (T cell clone A2b): positive

Molecule: QGTIDTAVLHLDTNL [SEQ ID NO: 72, QGTIDTAVLHLDTNL]
- IC50 (DRB1*0401): 8 to 16 µM

Molecule: LRSINQGLD (listed as Rattus sp.) [SEQ ID NO: 67]
- Recognition by T cell clone A2b (T cell clone A2b): positive

Molecule: LRSPVISIE (listed as Mus musculus) [SEQ ID NO: 24]
- T-cell recognition during adjuvant arthritis [1]: positive
- Recognition by T cell clone A2b (T cell clone A2b): positive

Molecule: MTSLKSVNGQIESLI [SEQ ID NO: 78, MTSLKSVNGQIESLI]
- IC50 (DRB1*0401; [3]): 64 to 128 µM

Molecule: LPSGGESLE (listed as Rattus sp.) [SEQ ID NO: 21]
- T-cell recognition during adjuvant arthritis [1]: positive
- Recognition by T cell clone A2b (T cell clone A2b): positive

Molecule: FFSGSSQLE (listed as Rattus sp.) [SEQ ID NO: 49]
- T-cell recognition during adjuvant arthritis [1]: positive
- Recognition by T cell clone A2b (T cell clone A2b): positive

Molecule: SYRLRSPVISIDPPS [SEQ ID NO: 74, SYRLRSPVISIDPPS]
- IC50 (DRB1*0401; [3]): 16 to 32 µM

Molecule: LKSLSSQIE (listed as Homo sapiens) [SEQ ID NO: 19]
- Recognition by T cell clone A2b (T cell clone A2b): positive

Molecule: QLLGVSASVPVEHRD [SEQ ID NO: 76, QLLGVSASVPVEHRD]
- IC50 (DRB1*0401; [3]): 32 to 64 µM

Molecule: SHSAVCHLE (listed as Homo sapiens) [SEQ ID NO: 36]
- T-cell recognition during adjuvant arthritis [1]: positive

Molecule: LPSGGDDLE (listed as Rattus sp.) [SEQ ID NO: 22]
- T-cell recognition during adjuvant arthritis [1]: positive
- Recognition by T cell clone A2b (T cell clone A2b): positive

Molecule: LRSPVISID (listed as Homo sapiens) [SEQ ID NO: 23]
- T-cell recognition during adjuvant arthritis [1]: positive
- Recognition by T cell clone A2b (T cell clone A2b): positive

Molecule: EDLVGSASGDLDLGK [SEQ ID NO: 75, EDLVGSASGDLDLGK]
- IC50 (DRB1*0401; [3]): 32 to 64 µM

Molecule: ISSFCTVVD (listed as Rattus sp.) [SEQ ID NO: 61]
- Recognition by T cell clone A2b (T cell clone A2b): positive

Molecule: VMSFVNMVE (listed as Homo sapiens) [SEQ ID NO: 69]
- Recognition by T cell clone A2b (T cell clone A2b): positive

B1: Phospholipase A2: … (peptide)
peptide: LGGSGTPVDELDKCC
modifications: not fully specified; cysteine pairing not given here
- IC50 [2]: 128 to 256 µM

B2: Chondroitin sulf.(4): … (peptide)
peptide: QGTIDTAVLHLDTNL
modifications: not checked
- IC50 [2]: 8 to 16 µM

B3: MMP-3 (1): … (peptide)
peptide: SSFWPSLPSGVDAAY
modifications: not checked
- IC50 [2]: 16 to 32 µM

B4: MMP-10: … (peptide)
peptide: SAFWPSLPSYLDAAY
modifications: not checked
- IC50 [2]: 8 to 16 µM

B5: Versican: … (peptide)
peptide: TTTVSSFSLNVEYAI
modifications: not checked
- IC50 [2]: 128 to 256 µM

B6: Fibronectin: … (peptide)
peptide: QPLVQTAVTNIDRPK
modifications: not checked
- IC50 [2]: 32 to 64 µM

B7: Aggrecan (1): … (peptide)
peptide: EDLVGSASGDLDLGK
modifications: not checked
- IC50 [2]: 32 to 64 µM

B8: (Pro)collagen α1(III): … (peptide)
peptide: MTSLKSVNGQIESLI
modifications: not checked
- IC50 [2]: 64 to 128 µM

B9: Chondroitin sulf.(1): … (peptide)
peptide: QLLGVSASVPVEHRD
modifications: not checked
- IC50 [2]: 32 to 64 µM

B10: MMP-3 (2): … (peptide)
peptide: FFYFFTGSSQLEFDP
modifications: not checked
- IC50 [2]: 8 µM

B11: Perlecan: … (peptide)
peptide: SYRLRSPVISIDPPS
modifications: not checked
- IC50 [2]: 16 to 32 µM
